Source: patent publication US20160038448A1, “THE INHIBITION OF THE TOXIC EFFECTS OF ISLET AMYLOID FORMATION BY FLURBIPROFEN AND FLURBIPROFEN DERIVATIVES” (The Research Foundation for the State University of New York, priority 2013, published 2016)
Residue numbers refer to the chain shown, from its start. Entries after “also recorded” stand apart in the source; their conditions may differ.

Columns and labels:
[1] = biological target: T1, pre-formed human amylin amyloid fibrils (Homo sapiens, UniProt P10997); experiment: Disaggregation of pre-formed amylin amyloid fibrils (thioflavin-T and TEM); assay type: biochemical; details: 20-fold excess added after amyloid formation was complete, up to 48 hours
T1 construct: Mature, fully processed, Amylin is 37 residues in length, contains a disulfide bond between residues 2 and 7; made in house; host or cells: chemical solid-phase peptide synthesis (Fmoc), no expression host
T1 sequence (P10997 34-70 limits assumed): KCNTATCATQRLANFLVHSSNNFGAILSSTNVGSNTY
Experimental: Solutions were prepared by adding pH 7.4, 20 mM Tris buffer and thioflavin-T to lyophilized dry peptides for a final peptide concentration of 16 M. For the studies of Aspirin and Ketoprofen, 0.25% DMSO was present in the solution. Measurements were made at 25° C. using a Beckman Coulter DTX880 plate reader without stirring. An excitation filter of 430 nm and an emission filter of 485 nm were used.

human IAPP [2] = biological target: T2, human IAPP (Homo sapiens, UniProt P10997); experiment: Fluorescence detected thioflavin-T assay of the time course of amyloid formation; assay type: biochemical
T2 construct: Mature, fully processed, Amylin is 37 residues in length, contains a disulfide bond between residues 2 and 7; made in house; host or cells: chemical solid-phase peptide synthesis (Fmoc), no expression host
T2 sequence (P10997 34-70 limits assumed): T1 sequence (P10997 34-70 limits assumed)
Experimental: Peptides were first dissolved in 100% hexafluoroisopropanol (HFIP) at a concentration 1.6 mM and then filtered to remove any preformed amyloid aggregates. For thioflavin-T fluorescence assays, aliquots were lyophilized and redissolved in pH 7.4, 20 mM Tris-HCl buffer at the desired concentration. Aspirin and Ketoprofen were prepared in 100% dimethyl sulfoxide (DMSO).
Solutions were prepared by adding pH 7.4, 20 mM Tris buffer and thioflavin-T to lyophilized dry peptides for a final peptide concentration of […]. For the studies of Aspirin and Ketoprofen, 0.25% DMSO was present in the solution. Measurements were made at 25° C. using a Beckman Coulter DTX880 plate reader without stirring. An excitation filter of 430 nm and an emission filter of 485 nm were used. To test disaggregate activity of Aspirin, peptide was first incubated in low-binding 96-wells plate and monitored by plate reader to ensure the formation of amyloid fibrils.
A mixture of flurbiprofen (1-20 parts) and human IAPP (1 part) was monitored by fluorescence detected thioflavin-T assays. The assays monitored the time course of amyloid formation (amount vs time) in the presence and absence of flurbiprofen.
A mixture of OH-flurbiprofen and human IAPP were monitored by fluorescence detected thioflavin-T assays. Three different concentrations (1:1 ratio, 1:10 ratio and 1:20 ratio of IAPP to OH-flurbiprofen) were tested against human IAPP without any added OH-flurbiprofen. The assays monitored the time course of amyloid formation (amount vs time) in the presence and absence of a flurbiprofen derivative.
Three different mixtures of NSAIDs (20 parts) and human IAPP (1 parts) were compared to each other and human IAPP alone by fluorescence detected thioflavin-T assays. The assays monitored the time course of amyloid formation (amount vs time) in the presence and absence of aspirin, naproxen and flurbiprofen.

human IAPP (amylin) = biological target: T3, human IAPP (amylin) (Homo sapiens, UniProt P10997); experiment: Transmission electron microscopy of amyloid fibrils; assay type: biochemical; details: 20-fold excess of NSAID over human IAPP, end of kinetic experiment
T3 construct: Mature, fully processed, Amylin is 37 residues in length, contains a disulfide bond between residues 2 and 7; made in house; host or cells: chemical solid-phase peptide synthesis (Fmoc), no expression host
T3 sequence (P10997 34-70 limits assumed): T1 sequence (P10997 34-70 limits assumed)
Experimental: TEM was performed at the Life Science Microscopy Center at Stony Brook University. Aliquots were removed from the same solutions that were used for the fluorescence measurements. 5 μL of peptide solution was placed on carbon-coated Formvar 300 mesh copper grid for one minute and then negatively stained with saturated uranyl acetate for another one minute.

human amylin = biological target: T4, human amylin (Homo sapiens, UniProt P10997); experiment: Right angle light scattering assay (RALS) without thioflavin-T; assay type: biochemical; details: 20-fold excess of aspirin (320 μM), amylin 16 μM, no thioflavin-T
T4 construct: Mature, fully processed, Amylin is 37 residues in length, contains a disulfide bond between residues 2 and 7; made in house; host or cells: chemical solid-phase peptide synthesis (Fmoc), no expression host
T4 sequence (P10997 34-70 limits assumed): T1 sequence (P10997 34-70 limits assumed)
Experimental: Solutions were prepared by adding pH 7.4, 20 mM Tris buffer without thioflavin-T to lyophilized dry peptides for a final peptide concentration of 16 […] used an excitation and emission wavelength of 500 nm.

[3] = tested on: human islet cell transplants; experiment: Mice transplanted with human islet cell transplants; assay type: in vivo, mouse; details: example in present tense
Experimental: Mice transplanted with human islet cell transplants are treated with flurbiprofen or a flurbiprofen derivative.

[4] = biological target: T5, I26P human IAPP point mutant (Homo sapiens, UniProt P10997, I59P); experiment: Thioflavin-T assay and TEM with non-amyloidogenic point mutant; assay type: biochemical; details: 20 fold excess of Flurbiprofen; vesicles as control experiment
T5 construct: Mature, fully processed, Amylin is 37 residues in length, contains a disulfide bond between residues 2 and 7
T5 sequence (P10997 34-70 I59P): T1 sequence (P10997 34-70 limits assumed) with I26P
Experimental: The […] human IAPP point mutant was incubated with Flurbiprofen (20 fold excess of Flurbiprofen) and the mixture was monitored by fluorescence detected thioflavin-T assays. […] Transmission electron microscopy was used to confirm the absence of amyloid. The […] human IAPP point mutant was incubated with 100 nm vesicles composed of 100% anionic lipids as a control experiment. The mixture was monitored by fluorescence detected thioflavin-T assays. […] Transmission electron microscopy was used to confirm the presence of amyloid.

H18Q human IAPP = biological target: T6, H18Q human IAPP (Homo sapiens, UniProt P10997, H51Q); experiment: Thioflavin-T assay of mutant human IAPP amyloid formation (H18Q); assay type: biochemical; details: 1:20 mixture of mutant with flurbiprofen
T6 construct: Mature, fully processed, Amylin is 37 residues in length, contains a disulfide bond between residues 2 and 7
T6 sequence (P10997 34-70 H51Q): T1 sequence (P10997 34-70 limits assumed) with H18Q
From the text: (§1) A mixture of flurbiprofen (20 parts) and human IAPP (1 part) was monitored by fluorescence detected thioflavin-T assays. The assays monitored the time course of amyloid formation (amount vs time) in the presence and absence of flurbiprofen. The effect of flurbiprofen in wild-type (WT) human IAPP, and in two mutants of human IAPP was monitored. In one mutant, all of the aromatic amino acids in human IAPP were replaced by […] human IAPP was examined. A second mutant in which […] human IAPP) was also tested.

[5] = tested on: human IAPP transgenic mouse islets; experiment: Amyloid formation induced in human IAPP transgenic mouse islets; assay type: cell-based; details: example in present tense
From the text: Amyloid formation is induced in human IAPP transgenic mouse islets in the presence and absence of flurbiprofen or a flurbiprofen derivative.

[6] = biological target: T7, 3XL-IAPP mutant (F15L, F23L, Y37L human IAPP) (Homo sapiens, UniProt P10997, F48L/F56L/Y70L); experiment: Thioflavin-T assay of mutant human IAPP amyloid formation (3XL); assay type: biochemical; details: 1:20 mixture of mutant with flurbiprofen
T7 construct: Mature, fully processed, Amylin is 37 residues in length, contains a disulfide bond between residues 2 and 7
T7 sequence (P10997 34-70 F48L/F56L/Y70L): T1 sequence (P10997 34-70 limits assumed) with F15L, F23L, Y37L
From the text: as §1

[7] = tested on: 3XL-IAPP mutant (F15L, F23L, Y37L human IAPP); experiment: as above; assay type: biochemical; details: WT human IAPP and mutant IAPP compared
From the text: as §1

human IAPP [8] = biological target: T2, human IAPP; experiment: One and two dimensional IR spectroscopy of fibers formed with flurbiprofen; details: IAPP:flurbiprofen 1:20; 0.5 mm human IAPP and 10 mM flurbiprofen
Experimental: One and two dimensional infrared (IR) spectroscopy was used to confirm the presence of beta-sheet structure. Amyloid is rich in beta-sheet structure. IR spectra were recorded of a mixture of […] human IAPP and 10 mM flurbiprofen.

rat INS-1 beta-cells = experiment: AlamarBlue cell viability of beta-cells given aliquots of the IAPP amyloid time course; assay type: cell-based; details: for presence and toxic effects of intermediates of amyloid formation: human IAPP with compound
Experimental: FIG. 5. […] (A) A thioflavin-T monitored time course of amyloid formation in the presence and absence of flurbiprofen. […] 20 mM Tris-HCl buffer with 0.25% DMSO was used as the control.
The presence of toxic intermediates is reduced when amyloid formation is accelerated by use of flurbiprofen or a flurbiprofen derivative. A thioflavin-T monitored time course of amyloid formation by human IAPP was conducted in the presence and absence of flurbiprofen. Aliquots were removed at various time points and applied to rat INS-1 beta-cells; at thirty minutes, at 12 hours, at 48 hours. Cell viability as judged by AlamarBlue assays. 20 mM Tris-HCl buffer with 0.25% DMSO was used as the control.

[9] = NMR spectra and pulse field gradient NMR diffusion (aggregation of the compound); assay type: physicochemical
Experimental: Flurbiprofen was dissolved at 32 micro molar and at 640 micromolar and Nuclear Magnetic Resonance (NMR) spectra were recorded.
A sample of 640 micromolar Flurbiprofen was prepared and pulse field gradient NMR experiments were conducted to determine the diffusion coefficient of the compound. The diffusion coefficient is directly related to the hydrodynamic radius of the compound. The NMR intensity decay curve was monitored for the methyl group NMR signal. The best fit to the data yields a hydrodynamic radius of 3.9 Å.

A-beta(1-40) = biological target: T8, A-beta(1-40) (Homo sapiens, UniProt P05067); experiment: Thioflavin-T assay of A-beta(1-40) amyloid formation; assay type: biochemical; details: flurbiprofen 20 parts, A-beta(1-40) 1 part
T8 construct: A mixture of flurbiprofen (20 parts) and A-beta(1-40) (1 part)
From the text: A mixture of flurbiprofen (20 parts) and A-beta(1-40) (1 part) was monitored by fluorescence detected thioflavin-T assays. The assays monitored the time course of amyloid formation (amount vs time) in the presence and absence of flurbiprofen.

human IAPP [10] = biological target: T2, human IAPP; experiment: Seeding experiments monitored by thioflavin-T; assay type: biochemical; details: 10% seeds by mass from 1:20 IAPP:flurbiprofen mixture
Experimental: Seeding experiments were conducted using the products of the experiment conducted with the mixture of flurbiprofen (20 parts) and human IAPP. Seeding refers to the addition of a small […] of pre-formed amyloid fibers to an initially unaggerated solution of polypeptide. Addition of the amyloid fibers leads to a by passing of the lag phase. […] 10% seeds, by mass, were added to unaggerated human IAPP and amyloid formation monitored by fluorescence detected thioflavin-T assays.

T8 sequence (P05067 672-711): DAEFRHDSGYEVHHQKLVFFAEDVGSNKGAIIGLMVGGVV

## CC(=O)Oc1ccccc1C(=O)O [Aspirin]
[1]
  disaggregation of pre-formed amylin amyloid fibrils: unable to disassemble pre-formed amylin amyloid; also recorded: does not disaggregate pre-formed human amylin amyloid fibrils
[1]; listed as aspirin
  disaggregation of pre-formed amylin amyloid fibrils: does not disaggregate amylin amyloid; also recorded: no effect on the thioflavine-T signal
Human IAPP [2]; 20 to 1 ratio of NSAID to human IAPP, pH 7.4, 25° C.
  inhibition of amyloid formation by human IAPP (amylin): do not inhibit amylin amyloid formation; also recorded: no inhibition of amyloid; also recorded: does not inhibit amyloid formation by human amylin
Human IAPP [2]; amylin 16 μM, aspirin up to 20-fold excess, pH 7.4, 25° C., 0.25% DMSO
  final thioflavin-T intensity: no detectable effect on the final thioflavin-T intensity
Human IAPP [2]; amylin 16 μM, aspirin up to a 20-fold excess, pH 7.4, 25° C.
  rate of amyloid formation as judged by T50: no detectable effect on the rate of amyloid formation
Human IAPP (amylin)
  amyloid fibrils by TEM in presence of NSAID: no changes in amyloid formation
Human IAPP (amylin); listed as aspirin
  amyloid fibrils by TEM in presence of NSAID: Extensive matts of fibrils; also recorded: does not inhibit IAPP amyloid formation
Human amylin
  aggregation curves by right angle light scattering: does not inhibit amyloid formation by human amylin

## CC(C(=O)O)c1ccc(-c2ccccc2)c(F)c1 (racemic) [Flurbiprofen, (RS)-2-(2-fluorobiphenyl-4-yl)propanoic acid]
[3]
  survival of islet cell transplants: enhances the survival of the islet cell transplants
[4]
  induction of amyloid formation by I26P-IAPP (thioflavin-T, TEM): No increase in fluorescence is detected; also recorded: did not induced amyloid formation; also recorded: does not induce the non-amyloidogenic point mutant I26P-IAPP to form amyloid fibers
H18Q human IAPP
  effect on amyloid formation by H18Q-IAPP mutant: accelerates amyloid formation
H18Q human IAPP; listed as flurbiprofen
  effect on amyloid formation by H18Q-IAPP mutant: effected the mutant the same way as it did the wild type
[5]
  toxic effects of amyloid formation in islets: reduces the toxic effects of amyloid formation
Human IAPP [2]; 1:1 ratio of human IAPP and compound
  effect on human IAPP amyloid formation (thioflavin-T time course): showed acceleration of amyloid formation
Human IAPP [2]; 20 to 1 ratio of compound to human IAPP
  effect on human IAPP amyloid formation (thioflavin-T time course): strongest effect of accelerating human IAPP amyloid formation
Human IAPP [2]; 20 to 1 ratio of compound to human IAPP, listed as Flurbiprofen racemate
  effect on human IAPP amyloid formation (thioflavin-T time course): accelerated islet amyloid formation
Human IAPP [2]; 20 to 1 ratio of compound to human IAPP, listed as racemic mixture
  effect on human IAPP amyloid formation (thioflavin-T time course): equally effective
Human IAPP [2]; IAPP:compound ratios 1:1 to 1:20, pH 7.4, 20 mM Tris, 25° C.
  effect on human IAPP amyloid formation (thioflavin-T time course): accelerated islet amyloid formation
[6]
  effect on amyloid formation by 3XL-IAPP mutant: had the same effect; also recorded: accelerates amyloid formation
[7]
  acceleration of amyloid formation and reduction of toxic effects of intermediates, WT human IAPP versus mutant IAPP: about equally
Human IAPP [8]
  β-structure of flurbiprofen induced aggregates (IR): rich in β-structure
Rat INS-1 beta-cells; aliquots at thirty minutes, 12 hours, 48 hours of IAPP time course with and without flurbiprofen
  protection of β-cells against IAPP induced toxicity (cell viability, AlamarBlue): protects β-cells against IAPP induced toxicity
Rat INS-1 beta-cells
  presence and toxic effects of intermediates of amyloid formation: reduced the presence and toxic effects of intermediates of amyloid formation in a dose dependent fashion
Rat INS-1 beta-cells; listed as Flurbiprofen racemate
  presence and toxic effects of intermediates of amyloid formation: reduced the presence and toxic effects of intermediates of amyloid formation
Rat INS-1 beta-cells; listed as flurbiprofen
  presence and toxic effects of intermediates of amyloid formation: reduced
[9]; 32 and 640 micro molar samples
  aggregation state of the compound (NMR peak positions and line widths): independent of the concentration of the compound; also recorded: did not aggregate; also recorded: monomeric
[9]; 640 micromolar, methyl resonance decay curve
  hydrodynamic radius (PFG-NMR): 3.9 Å
A-beta(1-40)
  effect on A-beta(1-40) amyloid formation kinetics: did not influence the kinetics of amyloid formation by A-beta(1-40); also recorded: does not accelerate amyloid formation by the Aβ1-40 peptide
Human IAPP [10]
  seeding of human IAPP amyloid formation by fibers formed with flurbiprofen: extremely effective at seeding amyloid formation by human IAPP
